Laboratory results taken from PMC4912613, “A broad analysis of resistance development in the malaria parasite” (Nature Communications, 2016).
Marks after values point to notes of the source that are not given here.

Tests used:
[1] = tested on: P. falciparum 3D7, Dd2, Dd2Δexo; assay: In vitro evolution of compound-resistant lines (selection); type: cell-based, Plasmodium falciparum; conditions: for Time Length to Obtain Mutants: in vitro selection; for # of Resistant Strains Generated: resistant cultures out of three independent cultures; for EC50 fold shifts observed: selected parasites vs selection parent
Text: While we found an overall lack of pre-existing resistance, analysing the onset of resistance was critical, as compounds resulting in rapid resistance are not ideal for clinical development. We therefore sought to create drug-resistant parasites using a variety of different selection methods. We implemented either a high-dose method or a ramp-up/pulse method for our in vitro selections. Two of the 50 compounds—MMV028895 and MMV665824—were removed from the selection study during experimentation. […] Out of the remaining 48 compounds, resistant parasites were obtained for 23 (Supplementary Data 1). As each selection was performed in triplicate with three independent cultures, we succeeded in generating a total of 66 resistant cultures. Parasites resistant to MMV026596 were not obtained despite 100 days of selection, but the cultures acquired hypersensitivity to mefloquine with a 10-fold reduction in EC50 compared with its parental line, 3D7. For the remaining 24 compounds, acquisition of resistant parasites was unsuccessful despite numerous attempts over an extensive period of time.
Based on the compound speed of action and lab specialty, selections were conducted using a high-pressure intermittent selection method, a step-wise selection method, or a constant selection method. For high-pressure selections, ∼1–2 × 10^9 parasites were treated at a concentration of 3–10 × EC50 until parasites could not be seen by microscopy (4–10 days). Following treatment, compound pressure was removed and cultures were allowed to recover. Once healthy parasites were seen and parasitemia reached ∼2%, compound pressure was reinstated. For step-wise selections, ∼1 × 10^8 parasites were treated at a starting concentration resulting in a reduced growth rate of 50%. Cultures were examined daily by microscopy, increasing compound concentration in increments of 5–10% as needed to maintain a 50% reduced growth rate. Selections were carried out until cultures achieved a reproducible EC50 fold shift of >3 × . Finally, constant selections were conducted in a similar manner to the high-pressure intermittent method with the exception that compound pressure was never removed. Following successful selection, cultures were cloned out using a limiting dilution method as previously described. Selections were terminated after 200 days if resistance could not be obtained.

[2] = tested on: GNF449-R2 (PfATP4 I203L and P990R, parent Dd2); assay: Cross-resistance EC50 assay, GNF449-R2; type: cell-based; conditions: Plasmodium falciparum, SYBR green 72 hour assay, asynchronized parasites, 96-well or 1536-well format
Text: (§1) To evaluate potential overlapping activity against known antimalarial drug targets, we performed dose-response studies with each compound against our assembled set of drug-resistant lines and their corresponding parents, in an asexual blood stage proliferation assay (Table 1). Comparisons were made to the drug-sensitive strain 3D7 when a parent was unavailable (TM90C2A, W2 and Dd2). As laboratories conducted EC50 assays with different strains and protocols, all comparisons were made between assays from the same laboratory and under the same assay conditions. Compounds displaying >5-fold EC50 shifts relative to the parent or sensitive strain were flagged as having potentially non-novel targets. Average fold shifts per strain ranged from 0.82 to 2.34, with a median of 1.23 indicating there was not common resistance to any one resistant clone. No resistance patterns were observed when classifying the compounds based on chemical structure, but this was not surprising given the diversity of compounds chosen. On the other hand, given that these confirmed compounds were derived from larger unconfirmed hit lists to which some filtration criteria may have been applied (for example, elimination of obvious dihydrofolate reductase inhibitors[32]), some[10][11][12][13] pre-existing bias may exist in the set. […]
(§2) Alternatively, a SYBR Green-based proliferation approach was used for the 72-h assay, as previously described. Briefly, a culture of either synchronized or asynchronous parasitized RBCs (0.3% parasitemia and 4% haematocrit) in screening medium (identical to supplemented medium above except no serum was added) was exposed to serial drug dilutions. Plates were incubated at 37 °C and gassed with 93% N2, 4% CO2 and 3% O2 for 72 h. Following incubation, 10 × SYBR Green I (Invitrogen; supplied in 10,000 × concentration) in lysis buffer ([…], 5 mM EDTA, 0.16% Saponin wt per vol and 1.6% Triton X vol per vol) was added to the wells and the plates were incubated overnight at room temperature before plate reading. EC50 assays were repeated three times, taking the average EC50 value from each assay set, and removing any outliers using a single iteration of Grubbs' test, eliminating values with z-scores above the critical z-value (α=0.05). The raw EC50 values for synchronized parasites assayed in a 384-well format are listed in Supplementary Data 4. The raw EC50 values for asynchronous parasites assayed in a 96 or 1536-well format are listed in Supplementary Data 5.
(§3) EC50 values for each strain were compared with those of the corresponding parent strain to determine fold-shift changes and identify resistance. To minimize the cause variance between assays, all comparisons were conducted between strains assayed under identical conditions. A one-way ANOVA followed by a Dunnet's post-test was conducted in GraphPad Prism to identify significant changes between the parent and resistant strain.

PfCRT-Q352R (parent Dd2) = assay: Cross-resistance EC50 assay, PfCRT-Q352R; type: cell-based; conditions: Plasmodium falciparum, DD2, 72 h, read-out: PfCRT:Q352R (Dd2 Parent) Average EC50
Text: as §1, §2, §3

Row | Structure (SMILES) | Time Length to Obtain Mutants [1] | # of Resistant Strains Generated [1] | EC50 fold shifts observed [1] | EC50 [2] [µM] | EC50 (PfCRT-Q352R (parent Dd2)) [nM]
1 | COc1ccc(NC(=O)N2CCCCN3[C@H](CN)[C@H](c4ccc(C#Cc5ccccc5)cc4)[C@@H]3C2)cc1 [BRD1095] | SHORT (0-50 days) | 3/3 | 4-100x | 0.00119 | 12
2 | CCN(CC)CCn1c(=N)n(CC(O)c2ccc(Cl)c(Cl)c2)c2ccccc21.Cl (centres unmarked) [MMV000248] | LONG (> 125 days) | 0/3 | no shift | 0.497 | 329
3 | CCOc1cc2c(cc1OCC)C(c1cc(Cl)ccc1O)NCC2 (centres unmarked) [MMV000478] | LONG (> 125 days) | 0/3 | no shift | 0.648 | 785
4 | CCCOCc1cc(CN2CCN(c3cccc(Cl)c3)CC2)c(O)c2ncccc12 [MMV000787] | LONG (> 125 days) | 0/3 | no shift | 1.7 | 699
5 | CN1CCN(c2ccc(Nc3c4ccccc4nc4ccccc34)cc2)CC1 [MMV006172] | LONG (> 125 days) | 0/3 | no shift | 0.31 | 75
6 | CCCN(CCC)CC(O)COc1ccccc1C(=O)Nc1ccccc1 (centres unmarked) [MMV006455] | LONG (> 125 days) | 0/3 | no shift | 0.309 | 1220
7 | COc1cc2cc(C(=O)Nc3ccccc3)c(N)nc2cc1OC [MMV006767] | MODERATE (50-125 days) | 2/3* | 2-4x | 0.329 | 1480
8 | Cc1cc(Nc2ccc(OCc3ccccc3)cc2)nc2cc(O)ccc12 [MMV007181] | LONG (> 125 days) | 0/3 | no shift | 0.153 | 133
9 | Brc1ccc(Nc2nc3ccccc3nc2Nc2ccc(Br)cc2)cc1 [MMV007224] | LONG (> 125 days) | 3/3 | 1.7x | 0.717 | 287
10 | Cc1ccc(Cn2c(N3CCC(C(=O)NCc4cccs4)CC3)nc3ccccc32)cc1 [MMV007564] | SHORT (0-50 days) | 3/3 | 7-12x | 0.739 | 430
11 | Cc1c(C)n(Cc2ccc(F)cc2)c2ccc(C(=O)NCc3ccco3)cc12 [MMV008149] | SHORT (0-50 days) | 3/3 | – | 1.36 | 139
12 | OC(CNC1CCCCC1)Cn1c2ccccc2c2ccccc21 (centres unmarked) [MMV009063] | LONG (> 125 days) | 3/3 | 1.9-3.4x | 0.457 | 315
13 | CCN(CC)S(=O)(=O)c1ccc(-c2csc(Nc3ccc(C)c(C)c3)n2)cc1 [MMV009108] | SHORT (0-50 days) | 3/3 | 9x | 1.01 | 404
14 | COC(=O)c1ccc(C2C3=C(O)CC(c4ccc(F)cc4)CC3=Nc3ccccc3N2C(=O)c2ccccc2)cc1 (centres unmarked) [MMV011438] | LONG (> 125 days) | 0/3 | no shift | 0.552 | 174
15 | Nc1ccc(-c2nc3cc(Oc4ccc(Oc5ccc6[nH]c(-c7ccc(N)cc7)nc6c5)cc4)ccc3[nH]2)cc1 [MMV011895] | LONG (> 125 days) | 2/3 | 2-4x | 0.644 | 206
16 | COCCNCC(O)Cn1c2ccc(Cl)cc2c2cc(Cl)ccc21 (centres unmarked) [MMV019017] | LONG (> 125 days) | 0/3 | no shift | 0.636 | 582
17 | COc1ccccc1CNC(=O)CCn1c(=O)[nH]c2ccsc2c1=O [MMV019066] | SHORT (0-50 days) | 3/3 | >15x | 0.008 | 63
18 | Cl.c1ccc2c(NCCCCCCNc3c4c(nc5ccccc35)CCCC4)c3c(nc2c1)CCCC3 [MMV019555] | LONG (> 125 days) | 0/3 | no shift | 0.262 | 166
19 | COc1ccc(N2CCN(C(CNC(=O)C3CCCCC3)c3ccc4c(c3)OCO4)CC2)cc1 (centres unmarked) [MMV019662] | MODERATE (50-125 days) | 3/3 | 15x | 0.452 | 356
20 | COc1ccc(-c2nc(NC(=O)Cc3ccc4c(c3)OCCO4)sc2C)cc1 [MMV019719] | MODERATE (50-125 days) | 3/3 | 3x | 0.405 | 244
21 | CN(C)CCCN(C)C(=O)C1Cc2cc(-c3ccccc3)ccc2N1S(=O)(=O)c1ccccc1 (centres unmarked) [MMV028895] | – | – | – | 2.76 | 240
